Experimental data as given in patent US20120035050A1, “Synergistic Combinations Of Active Ingredients” (BAYER CROPSCIENCE AG, priority 2009, published 2012).
Read-outs that look alike come from different tables or passages of the source.

Assays:
Type in all cases: in vivo
[1] = system: greenhouse red spider mite (Tetranychus urticae); experiment: Tetranychus urticae test (OP-resistant/spray treatment)
Experimental: (§1) • Solvents: 78 parts by weight of acetone 1.5 parts by weight of dimethylformamide • Emulsifier: 0.5 part by weight of alkylaryl polyglycol ether
(§2) To produce a suitable preparation of active compound, 1 part by weight of active compound is mixed with the stated amount of solvent and emulsifier, and the concentrate is diluted with emulsifier-containing water to the desired concentration.
Discs of bean leaves (Phaseolus vulgaris) which are infested by all stages of the greenhouse red spider mite (Tetranychus urticae) are sprayed with an active compound preparation of the desired concentration.
After the desired period of time, the effect in % is determined. 100% means that all of the spider mites have been killed; 0% means that none of the spider mites have been killed.

[2] = system: green peach aphid (Myzus persicae); experiment: Myzus persicae test; details: 24 h, read-out: Kill in % after 1^d
Experimental: as §1, §2
Cabbage leaves (Brassica oleracea) which are heavily infested by the green peach aphid (Myzus persicae) are treated by spraying with the active compound preparation of the desired concentration.
After the desired period of time, the kill in % is determined 100% means that all of the aphids have been killed; 0% means that none of the aphids have been killed. The kill rates determined are entered into Colby's formula (see above).

[3] = system: larvae of the mustard beetle (Phaedon cochleariae); experiment: Phaedon cochleariae larvae test; details: for Kill in % after 2^d: sprayed cabbage leaves
[4] = system: larvae of the armyworm (Spodoptera frugiperda); experiment: Spodoptera frugiperda test; details: sprayed cabbage leaves
[5] = Tetranychus urticae, 144 h, read-out: Kill in % after 6 d
[6] = Phaedon cochleariae, 144 h, single active compound, 200 g/ha, 6 d, read-out: Kill in % after 6 d
[7] = single active compound, 200 g/ha
[8] = 200 g/ha, spray on infested cabbage leaves, after 1 d
[9] = single active compound, 500 g/ha, 6 d
[10] = Tetranychus urticae, 144 h, single active compound, 100 g/ha, 6 d, read-out: Kill in % after 6 d
[11] = single active compound, 100 g/ha
[12] = Phaedon cochleariae, 144 h, single active compound, 20 g/ha, 6 d, read-out: Kill in % after 6 d
[13] = Phaedon cochleariae, 144 h, single active compound, 100 g/ha, 6 d, read-out: Kill in % after 6 d

Compound	pest or weed control at 200 g/ha [1, 5]	pest or weed control at 200 g/ha ([2]; in Brassica oleracea)	pest or weed control at 200 g/ha [3, 6]	also measured
COCC(=O)N(c1c(C)cccc1C)C(C)C(=O)OC (stereo not drawn) [metalaxyl]	0%	0%	0%	
N#Cc1c[nH]cc1-c1cccc2c1OC(F)(F)O2 [fludioxonil]	0%	0%	17%	
OC(Cc1ccccc1Cl)(Cn1ncnc1S)C1(Cl)CC1 (stereo not drawn) [prothioconazole]	0%	0%		Kill in % after 2^d ([3]; 200 g/ha): 0%
CC(C)(C)C(O)(CCc1ccc(Cl)cc1)Cn1cncn1 (stereo not drawn) [tebuconazole]	70%	0%	0%	
O=C(NCCc1ncc(C(F)(F)F)cc1Cl)c1ccccc1C(F)(F)F [fluopyram, N-[2-[3-chloro-5-(trifluoromethyl)-2-pyridinyl]ethyl]-2-(trifluoromethyl)benzamide]	0%	0%	0%	
Cc1ccc(N(SC(F)(Cl)Cl)S(=O)(=O)N(C)C)cc1 [tolylfluanid]		0%	17%	Kill in % after 6^d ([4]; 200 g/ha): 0%
CCCOC(=O)NCCCN(C)C [propamocarb]				pest or weed control at 200 g/ha ([1]; Tetranychus urticae, 144 h, single active compound, 200 g/ha, 6 d, read-out: Kill in % after 6 d): 0%; Kill in % after 2 d [1, 7]: 0%; pest or weed control at 200 g/ha [2, 8]: 0%
N#Cc1ccccc1NC(=O)c1snc(Cl)c1Cl [isotianil]	0%	0%	0%	
CC(C)(C)C(O)C(Oc1ccc(Cl)cc1)n1cncn1 (stereo not drawn) [triadimenol]	0%	0%	0%	Kill in % after 2 d [1, 7]: 0%
CO/C=C(/C(=O)OC)c1ccccc1Oc1cc(Oc2ccccc2C#N)ncn1 [azoxystrobin]				pest or weed control at 500 g/ha ([3]; Phaedon cochleariae, 144 h, single active compound, 500 g/ha, 6 d, read-out: Kill in % after 6 d): 0%
O=C(NCc1ncc(C(F)(F)F)cc1Cl)c1c(Cl)cccc1Cl [fluopicolide]				Kill in % after 6 d [1, 9]: 0%; Kill in % after 6 d [3, 9]: 0%
Cc1nn(C)c(F)c1C(=O)Nc1ccccc1C(C)CC(C)C (stereo not drawn) [N-[2-(1,3-dimethylbutyl)phenyl]-5-fluoro-1,3-dimethyl-1H-pyrazole-4-carboxamide]			0%	pest or weed control at 200 g/ha [2, 8]: 0%
CC(C)NC(=O)N1CC(=O)N(c2cc(Cl)cc(Cl)c2)C1=O [iprodione]	50%	0%	0%	
Cc1ccc(C(C)NC(=O)[C@@H](NC(=O)OC(C)C)C(C)C)cc1 (stereo partly drawn) [iprovalicarb]	0%		0%	
CN(Cc1cnc(Cl)c(F)c1)C1=CC(=O)OC1 [compound (I-6), 4-{[(6-chloro-5-fluorpyrid-3-yl)methyl](methyl)amino}furan-2(5H)-one]				pest or weed control at 100 g/ha [1, 10]: 0%; Kill in % after 2 d [1, 11]: 0%; Kill in % after 6^d ([4]; 100 g/ha): 0%; Kill in % after 2^d ([3]; 100 g/ha): 33%; pest or weed control at 20 g/ha [3, 12]: 0%; pest or weed control at 100 g/ha [3, 13]: 67%
O=C1C=C(N(CCF)Cc2ccc(Cl)nc2)CO1 [compound (I-4), 4-{[(6-chloropyrid-3-yl)methyl](2-fluoroethyl)amino}furan-2(5H)-one]				pest or weed control at 4 g/ha ([1]; Tetranychus urticae, 144 h, single active compound, 4 g/ha, 6 d, read-out: Kill in % after 6 d): 50%; pest or weed control at 100 g/ha [1, 10]: 80%; pest or weed control at 0.8 g/ha ([2]; 0.8 g/ha, spray on infested cabbage leaves, after 1 d): 50%; Kill in % after 2^d ([3]; 20 g/ha): 0%; pest or weed control at 20 g/ha [3, 12]: 0%; pest or weed control at 100 g/ha [3, 13]: 17%
CSC1=N[C@@](C)(c2ccccc2)C(=O)N1Nc1ccccc1 [fenamidone]		0%		Kill in % after 2^d ([3]; 200 g/ha): 0%
CO/N=C(/C(=O)OC)c1ccccc1CO/N=C(\C)c1cccc(C(F)(F)F)c1 [trifloxystrobin]			33%	Kill in % after 2^d ([3]; 200 g/ha): 0%
O=C1C=C(N(Cc2ccc(Cl)nc2)CC(F)F)CO1 [compound (I-5), 4-{[(6-chloropyrid-3-yl)methyl](2,2-difluoroethyl)amino}furan-2(5H)-one]				pest or weed control at 100 g/ha [1, 5]: 0%; Kill in % after 2 d [1, 11]: 20%; pest or weed control at 0.8 g/ha ([2]; in Brassica oleracea): 50%; Kill in % after 2^d ([3]; 20 g/ha): 0%; pest or weed control at 20 g/ha [3, 12]: 0%; pest or weed control at 100 g/ha [3, 13]: 50%
